Assay results as given in patent US8618074B2, “GPCR enhanced neuroprotection to treat brain injury” (Board of Regents of the University of Texas System, priority 2007, dated 2013).

Tests used:
Mouse cortical neurons = assay: Neuronal survival in transwell co-culture with astrocytes under t-buOOH oxidative stress (Hoechst/calcein); assay type: cell-based; details: co-cultures; 10 min pre-treatment 2-MeSADP 2 μM or UTP 50 μM; 4.5 hours of t-buOOH
Experimental: Primary cultures of astrocytes were prepared as previously published (Lin et al., 2005). C57BL/6 male mice were purchased from the National Institute of Aging and maintained in standard accredited housing conditions at the University of Texas Health Science Center Animal Facility. Animal protocols were approved by our Institutional Animal Care Use Committee. Astrocytes were cultured in DMEM F-12 media (Invitrogen, # 11039-021) supplemented with 2 mM glutamine, nonessential amino acids, 10% fetal calf serum, 100 U/ml penicillin/streptomycin (Cambrex BioScience Walkersville, #17-602E) and 1% fungizone (Invitrogen, #15290-018) at 37° C. in an atmosphere containing 5% CO2. The culture medium was changed every 3-5 days. Confluent cells were gently removed by a trypsin EDTA solution and re-plated on 35 mm glass bottom chambers (Bioptechs #04200415C) prior to imaging experiments 3-4 days later. Cells were maintained in plastic culture flasks until the final re-seeding of cells onto a glass bottom chamber and were passed up to 3 times for astrocyte only experiments. For co-culture experiments with neurons, primary astrocytes were plated directly onto corning transwell-clear permeable supports, which physically separates the two cell-types by ˜1 mm (# 07-200-170, Fisher scientific). Astrocytes were cultured in transwells until they were ˜70% confluent. Mouse cortical neurons (Cambrex Bio Science Walkersville Inc., # M-CX-300) were then cultured onto 6 well mat-tek glass bottom plates and maintained in Neurobasal Medium (Invitrogen, # 21103-049), 2 mM L-Glutamine (Cambrex BioScience Walkersville, #17-605E), 100 U/ml penicillin/streptomycin (Cambrex BioScience Walkersville, #17-602E) and B-27 with (Invitrogen, #17504-044) and without antioxidants (Invitrogen, #10889-038), which controls glia contamination to less than 0.5%. The transwell supports with cultured astrocytes were placed in the neuron seeded glass bottom chambers for four days before imaging and both cell types were then maintained in neuronal media. For neuron only experiments, the astrocytes on the transwell supports were removed prior to treatments and imaging.
Sensitivity of neurons to oxidative stress was assessed by treating cultures with 100 μM tert-butyl hydrogen peroxide (t-BuOOH, Sigma, #B-2633) for 3 hours. Neurons were then stained with Hoechst 33342 (10 μg/ml, Molecular Probes, #H-3570) to label all cell nuclei and calcein AM (2 μM, #C3100, Molecular Probes, #C3100). […] Calcein fluorescence is only observed in live cells that have maintained their plasma membrane integrity. Images were acquired on an inverted Nikon TE300 microscope with a Hamamatsu ORCAER camera and Open lab software (Improvision).
To determine whether P2Y-R enhanced mitochondrial metabolism in astrocytes affected neuronal resistance to oxidative stress, we prepared co-cultures of neurons and astrocytes using corning transwell-clear permeable supports, which physically separates the two cell-types by ˜1 mm (# 07-200-170, Fisher scientific). Primary cultures of astrocytes were directly prepared in transwell supports until they were ˜70% confluent. Mouse cortical neurons were then cultured onto glass bottom mattek plates and maintained in B-27/Neurobasal Medium to control glia contamination to less than 0.5% (Invitrogen). After four days, co-cultures were treated with t-buOOH (100 μM) for 4 hours with and without pre-stimulation of ATP (2 μM, 10 minutes). Cells were then stained with the DNA intercalating dye Hoechst 33342 (10 μg/ml, Molecular Probes, #H-3570) and calcein AM (2 μM, Molecular Probes, #C3100). […] We then tested the neuroprotective affects of isoform specific purinergic ligands 2-MeSADP(P2Y1-R) and UTP(P2Y2-R). FIG. 6A depicts histogram plots of the percentage of neurons alive when cocultured with young or old astrocytes. FIG. 6B depicts histogram plots of the percentage of neurons alive pretreated with either 2-MeSADP (2 μM) or UTP (50 μM) for 10 min. […]

astrocytes [1] = assay: Astrocyte survival under t-buOOH oxidative stress in the absence of neurons; assay type: cell-based, mouse
Experimental: To determine whether P2Y-R enhanced mitochondrial metabolism in astrocytes affected neuronal resistance to oxidative stress, we prepared co-cultures of neurons and astrocytes using corning transwell-clear permeable supports, which physically separates the two cell-types by ˜1 mm (# 07-200-170, Fisher scientific). Primary cultures of astrocytes were directly prepared in transwell supports until they were ˜70% confluent. Mouse cortical neurons were then cultured onto glass bottom mattek plates and maintained in B-27/Neurobasal Medium to control glia contamination to less than 0.5% (Invitrogen). After four days, co-cultures were treated with t-buOOH (100 μM) for 4 hours with and without pre-stimulation of ATP (2 μM, 10 minutes). Cells were then stained with the DNA intercalating dye Hoechst 33342 (10 μg/ml, Molecular Probes, #H-3570) and calcein AM (2 μM, Molecular Probes, #C3100). […] We then tested the neuroprotective affects of isoform specific purinergic ligands 2-MeSADP(P2Y1-R) and UTP(P2Y2-R). FIG. 6A depicts histogram plots of the percentage of neurons alive when cocultured with young or old astrocytes. FIG. 6B depicts histogram plots of the percentage of neurons alive pretreated with either 2-MeSADP (2 μM) or UTP (50 μM) for 10 min. A ten-minute pre-treatment of astrocytes with either 2-MeSADP (2 μM), or UTP (50 μM) was equally protective against oxidative stress induced cell death. The % neurons alive after 4.5 hours of t-buOOH treatment was 51±4% (n=1664 neurons, pooled from 4 experiments) for untreated controls, 70±2% (n=2541 neurons, pooled from 4 experiments) for 2-MeSADP and 71±3% (n=1189 neurons, pooled from 4 experiments) for UTP treated co-cultures. […] The % astrocytes alive after 4.5 hours of t-buOOH treatment, in the absence of neurons, was 60±4% (n=294 cells) for control, 77±4% (n=294) for 2-MeSADP and 79±3% (n=333) for UTP treated astrocytes.
It should be noted that stimulation of neuroprotective response in astrocytes is not restricted to signaling through P2Y receptors. For example we have shown that administration of the membrane permeable IP3 analog, IP3BM, is capable of protecting astrocytes from oxidative damage. Thus, it appears possible that any stimulus capable of evoking IP3-mediated calcium release in astrocytes is equally suitable for application in the present treatment methods. To test this possibility, astrocyte cultures subjected to oxidative stress were treated with either 2-MeSADP, or the metabotropic glutamate receptor agonist (1 S, 3 R)-1-aminocyclopentane-1,3-dicarboxylic acid (ACPD), or were left untreated.
To directly examine the role of IP3 gated Ca^2+ release in P2Y-R enhanced astrocyte protection, we used a membrane permeant butyryloxymethyl ester of IP3 (IP3-BM). Cultures of astrocytes were exposed to IP3-BM and Ca^2+ levels were assessed using 2-photon imaging of Fura 2. Ca^2+ increases in response to IP3-BM application were easily detected, but they occurred over a much slower time course than those initiated by ATP treatment. This was not unexpected because of the slow process of IP3-BM movement across the lipid bilayer as well as the time needed to cleave the ester and accumulate IP3 in the cell. Because of the slower time course, we pretreated astrocytes for 20 minutes prior to exposing them to the oxidant stress t-BuOOH. […] The protective effect of IP3-BM treatment was blocked by the IP3R inhibitor, XeC. […]

astrocytes [2] = assay: Intracellular ATP determination (luciferin-luciferase); assay type: cell-based, mouse
Experimental: Intracellular ATP was measured using a luciferin-luciferase kit (Invitrogen, #22066). Plated astrocytes were trypsinized and washed 3× with PBS buffer (GIBCO #14190). An aliquot of cells was set aside to measure the cell density with a hemocytometer. The cells were then suspended in a lysate buffer (4 mM EDTA and 100 mM Tris, pH 7.75) and immediately heated to 100° C. for 5 minutes to minimize enzymatic changes in ATP levels. The supernatant was collected after a 10,000 g centrifugation for 1 minute and used with the luciferin/luciferase kit according to the manufacturer's instructions. Luminescence was measured with a Synergy™ HT Multi-Detection Microplate Reader (BioTek). ATP levels were normalized by cell density.
Our next approach to investigate the role of mitochondrial metabolism was to directly measure ATP levels in cultures astrocytes using a luciferin-luciferase assay (Invitrogen). Astrocytes were cultured as described above, trypsinized and washed with buffer. The cells were then suspended in a lysate buffer and immediately heated to 100° C. (5 min) to minimize enzymatic changes in ATP levels. After centrifugation, the ATP dependent luminescence of supernatant was measured with a microplate reader (Biotek). FIG. 5C depicts histograms of the direct measurement of intracellular ATP levels relative to untreated cells (control), P2Y-R stimulated (MeADP), then the same measurements in the presence of oligomycin (oligo) or ruthenium 360 (Ru360). We estimated that the resting intracellular ATP concentration in cultured astrocytes was 0.31±0.14 μM ATP/10^4 cells (n=3). […] Finally, we tested whether ruthenium 360 (Ru360; Calbiochem), a polycation that inhibits the electrogenic mitochondrial Ca^2+ uniporter, affected mitochondrial ATP production.

O=c1ccn([C@@H]2O[C@H](COP(=O)(O)OP(=O)(O)OP(=O)(O)O)[C@@H](O)[C@H]2O)c(=O)[nH]1 [UTP, uridine 5′-triphosphate]
% neurons alive (Mouse cortical neurons): 71±3% | % astrocytes alive (astrocytes [1]; absence of neurons, 4.5 hours of t-buOOH, 2-MeSADP or UTP): 79±3%

ruthenium 360 [Ru360]
effect on ability of 2-MeSADP to increase ATP levels (astrocytes [2]; Ru360 1 μM 30 min + 2-MeSADP): completely blocked | basal ATP levels, % of control values (astrocytes [2]; Ru360 1 μM, 30 min): 60.5%±10.5 % of control

N[C@@]1(C(=O)O)CC[C@@H](C(=O)O)C1 [ACPD, (1 S, 3 R)-1-aminocyclopentane-1,3-dicarboxylic acid]
% of astrocytes alive (astrocytes [1]; 10 minutes pretreatment, 4 hours of t-BuOOH, mean+SD): 66+9% | astrocyte resistance to oxidative stress (astrocytes [1]; astrocyte cultures subjected to oxidative stress, versus untreated): enhanced
